Laboratory results taken from patent US9422312B2, “Azabenzimidazole derivatives” (Boehringer Ingelheim International GmbH, priority 2014, dated 2016).

Target: Activated AMPK complex 1 (containing alpha1beta1gamma1) (Homo sapiens (Human), UniProt Q13131+Q9Y478)
Experiment: in vitro AMPK activation assay (ADP-Glo Kinase Assay)
Assay type: biochemical
Settings: 1 μM peptide substrate, 30 μM ATP, 60 min, room temperature, luminescence
From the text: Activated AMPK complex 1 (containing alpha1beta1gamma1) was obtained from baculovirus expression system. The gene encoding AMPK alpha1 was cloned into the pACG2T vector (BD Biosciences) to obtain a N-terminal Glutathion S transferase (GST)-fusion protein. The genes encoding AMPK beta 1 and gamma1 were cloned into the p2Bac dual multiple cloning site vector (Invitrogen) with beta1 under the control of the p10 promoter and gamma1 under the control of the PH promoter. The transfer vectors containing AMPK were co-transfected individually with AcPNV BacMagic-3 DNA (EMD Millipore) in Sf9 cells and the recombinant baculoviruses were harvested after 5 days, followed by 3 rounds of amplification of the virus stock in Sf9 cells. AMPK (alpha1beta1gamma1) was expressed in High Five 5 cells by co-infection of recombinant alpha1 virus and recombinant beta1/gamma1 virus for 72 h at 27° C. Cells were harvested by centrifugation and lysed by 3 freeze/thaw cycles in PBS with 10% glycerol and protease inhibitor cocktail (Roche). After centrifugation AMPK a1b1g1 in the supernatant was captured by immobilized glutathione (GE Healthcare), impurities were washed away with PBS and AMPK alpha1beta1gamma1 was eluted with PBS containing 20 mM reduced gluthathione. The protein buffer was then exchanged to PBS with 10% glycerol and protein concentration was determined by UV absorbance.
The white 384-well Optiplates (cat. no. 6007299) were purchased from PerkinElmer. The V9101 ADP-Glo Kinase Assay and ultra pure ATP (V915A) was purchased from Promega. The substrate for AMPK (NH2-HMRSAMSGLHLVKRR_CONH2) was purchased from Upstate (12-355).
Compounds were tested in either serial dilutions or single dose concentrations. The serial compound dilutions were prepared in 100% DMSO automatically. The final DMSO concentration in the assay was 0.1%.
The Compound Stock Solutions were 10 mM in 100% DMSO. The compounds were solubilised at room temperature.
In the 384-well plates 1.25 ul of test compound in assay buffer was mixed with 1.25 ul of AMPK and 1.25 μl of the peptide (final concentration of 1 μM) and 1.25 μl of ATP (final concentration of 30 μM), both dissolved in assay buffer. This step was followed by an incubation time of 60 min. Then 5 μl of ADP Glo Reagent was added. This was followed by 40 min of incubation. Then 10 μl of Kinase Detection Reagent was admixed. The plates were sealed and after an incubation period of 30 min, the luminescence signal was measured in an Envision reader. All incubation steps were accomplished at room temperature.
Each assay microtiter plate contained wells with vehicle controls instead of compound (0.1% DMSO in water) as reference for the low signal (100% CTL, low signal), and wells with serial dilutions of AMP (final 30 μM) as reference for high signals.
The luminescence signal generated was proportional to the ADP concentration produced and was correlated with AMPK activity. The analysis of the data was performed by the calculation of the percentage of ATP consumption of AMPK in the presence of the test compound compared to the consumption of ATP in the presence of AMPK without compound. (RLU(sample)/RLU(low control))*100[RLU=relative luminescence units]
An activator of the AMPK enzyme gave values above 100% CTL.
EC50 values based on dose response curves are calculated with the XIFIT software using the 4 Parameter Logistic Model or Sigmoidal Dose-Response Model.

Activated AMPK complex 1 (containing alpha1beta1gamma1), sequence (Q13131 whole entry): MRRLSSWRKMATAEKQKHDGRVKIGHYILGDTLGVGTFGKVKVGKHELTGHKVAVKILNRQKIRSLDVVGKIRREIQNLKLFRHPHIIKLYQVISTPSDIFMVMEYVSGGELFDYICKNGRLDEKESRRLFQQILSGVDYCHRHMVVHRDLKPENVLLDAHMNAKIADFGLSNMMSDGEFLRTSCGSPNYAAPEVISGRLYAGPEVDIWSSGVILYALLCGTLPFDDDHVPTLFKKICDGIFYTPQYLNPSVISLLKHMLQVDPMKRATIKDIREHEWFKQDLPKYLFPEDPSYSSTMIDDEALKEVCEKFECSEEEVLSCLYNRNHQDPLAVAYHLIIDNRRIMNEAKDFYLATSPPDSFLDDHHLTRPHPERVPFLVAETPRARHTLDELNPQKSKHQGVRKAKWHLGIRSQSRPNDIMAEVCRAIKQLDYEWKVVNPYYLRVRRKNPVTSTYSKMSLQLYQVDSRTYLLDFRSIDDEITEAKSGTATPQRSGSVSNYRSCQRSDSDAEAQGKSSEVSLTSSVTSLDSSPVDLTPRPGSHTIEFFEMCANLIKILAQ
Activated AMPK complex 1 (containing alpha1beta1gamma1), sequence (Q9Y478 whole entry): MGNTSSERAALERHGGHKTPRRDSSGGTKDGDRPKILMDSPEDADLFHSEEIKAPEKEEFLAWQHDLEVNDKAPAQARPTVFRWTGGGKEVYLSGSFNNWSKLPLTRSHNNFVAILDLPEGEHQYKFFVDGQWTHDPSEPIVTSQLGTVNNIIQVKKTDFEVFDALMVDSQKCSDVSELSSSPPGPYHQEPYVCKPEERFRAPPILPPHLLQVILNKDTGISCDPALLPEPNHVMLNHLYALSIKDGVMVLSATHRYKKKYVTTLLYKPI
Activated AMPK complex 1 (containing alpha1beta1gamma1), sequence (P54619 whole entry partner): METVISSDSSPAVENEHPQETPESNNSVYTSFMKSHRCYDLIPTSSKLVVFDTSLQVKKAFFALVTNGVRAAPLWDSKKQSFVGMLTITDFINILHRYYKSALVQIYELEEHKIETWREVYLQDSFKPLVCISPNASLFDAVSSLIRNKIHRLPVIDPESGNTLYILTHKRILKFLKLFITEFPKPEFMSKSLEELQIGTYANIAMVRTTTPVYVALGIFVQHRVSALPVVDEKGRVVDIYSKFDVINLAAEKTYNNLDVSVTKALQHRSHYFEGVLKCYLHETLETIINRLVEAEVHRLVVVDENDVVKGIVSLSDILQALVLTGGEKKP

SMILES: CN(C)S(C)(=O)=Nc1ccc(-c2nc3[nH]c(O[C@@H]4CO[C@H]5[C@@H]4OC[C@H]5O)nc3cc2Cl)cc1 (stereo partly drawn) [Example 21, N′-[4-(2-{[(3R,3aR,6R,6aR)-6-Hydroxy-hexahydrofuro[3,2-b]furan-3-yl]oxy}-6-chloro-3H-imidazo[4,5-b]pyridin-5-yl)phenyl]-N,N-dimethyl-methanesulfonimidamide]
- EC50: 2.9 µM

SMILES: CS(=O)(=NCc1ccc(-c2ccc(-c3nc4[nH]c(O[C@@H]5CO[C@H]6[C@@H]5OC[C@H]6O)nc4cc3Cl)cc2)cc1)N1CCCC1 (some centres unmarked) [Example 19]
- EC50: 0.138 µM
